Source: patent US20230085307A1, “PYRIDAZINONE COMPOUND AND HERBICIDE” (NISSAN CHEMICAL CORPORATION, priority 2019, published 2023)

How the values were obtained:
persian speedwell [1] = test: Test Example 4: herbicidal effect by soil treatment (Table 19, symbol R); assay type: in vivo, Persian speedwell (Veronica persica); details: amount of applied herbicide 320 g/ha
Outline: (§1)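 Scoring uses the grading scale of an earlier test, three weeks post-application. Treatment consists of spraying a diluted emulsion formulation across the surface of sterilized diluvial soil in which seeds are buried near 1.5 cm deep; boxes are kept in a greenhouse between 25° C. and 30° C.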

Italian ryegrass [2] = test: Test Example 5: herbicidal effect by foliage application, plastic box (Table 20, symbol K); assay type: in vivo, Italian ryegrass (Lolium multiflorum); details: foliage application, 320 g/ha, three weeks after application
Outline: (§2)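 Post-emergence foliar test in sterilized diluvial soil. Compound applied as water-diluted emulsion at a predetermined rate to 14-day-old plants; evaluation at three weeks.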

green foxtail [3] = test: Test Example 5: herbicidal effect by foliage application, plastic box (Table 20, symbol G); assay type: in vivo, green foxtail (Setaria viridis); details: foliage application, 320 g/ha, three weeks after application
Outline: as §2

late watergrass = test: Test Example 1: herbicidal activity, application before weed generation under submerged conditions (Table 16, symbol A); assay type: in vivo, late watergrass (Echinochloa oryzicola); details: 320 g/ha applied herbicide
Outline: (§3)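 Alluvial soil was flooded to 4 cm depth, weed seeds were sown mixed and 2.5-leaf rice seedlings were transplanted. On sowing day, the compound's emulsion, diluted in water to a set dose, was applied to the water surface. Plants grew at 25–30 °C and were scored 0–5 after three weeks.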

velvetleaf [4] = test: Test Example 4: herbicidal effect by soil treatment (Table 19, symbol M); assay type: in vivo, velvetleaf (Abutilon theophrasti); details: amount of applied herbicide 320 g/ha
Outline: as §1

chickweed [5] = test: Test Example 5: herbicidal effect by foliage application, plastic box (Table 20, symbol P); assay type: in vivo, common chickweed (Stellaria media); details: foliage application, 320 g/ha, three weeks after application
Outline: as §2

wild oat [6] = test: Test Example 4: herbicidal effect by soil treatment (Table 19, symbol I); assay type: in vivo, wild oat (Avena fatua); details: amount of applied herbicide 320 g/ha
Outline: as §1

Chinese sprangletop = test: Test Example 3: herbicidal effect by foliage application, Wagner pot (Table 18, symbol D); assay type: in vivo, chinese sprangletop (Leptochloa chinensis); details: 320 g/ha
Outline: (§4)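 Plants were sown in alluvial soil held under 0.1–0.5 cm standing water and grown 14 days in a greenhouse at 25–30 °C. An emulsifiable formulation, water-diluted to the set dose, was then sprayed onto the foliage, and effects were scored three weeks later using previously defined criteria.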

windgrass [7] = test: Test Example 5: herbicidal effect by foliage application, plastic box (Table 20, symbol L); assay type: in vivo, windgrass (Apera spica-venti); details: foliage application, 320 g/ha, three weeks after application
Outline: as §2

oval-leafed pondweed = test: Test Example 1: herbicidal activity, application before weed generation under submerged conditions (Table 16, symbol C); assay type: in vivo, oval-leafed pondweed (Monochoria vaginalis); details: 320 g/ha applied herbicide
Outline: as §3

green foxtail [8] = test: Test Example 4: herbicidal effect by soil treatment (Table 19, symbol G); assay type: in vivo, green foxtail (Setaria viridis); details: amount of applied herbicide 320 g/ha
Outline: as §1

persian speedwell [9] = test: Test Example 5: herbicidal effect by foliage application, plastic box (Table 20, symbol R); assay type: in vivo, Persian speedwell (Veronica persica); details: foliage application, 320 g/ha, three weeks after application
Outline: as §2

chickweed [10] = test: Test Example 4: herbicidal effect by soil treatment (Table 19, symbol P); assay type: in vivo, common chickweed (Stellaria media); details: amount of applied herbicide 320 g/ha
Outline: as §1

redroot pigweed [11] = test: Test Example 4: herbicidal effect by soil treatment (Table 19, symbol N); assay type: in vivo, redroot pigweed (Amaranthus retroflexus); details: amount of applied herbicide 320 g/ha
Outline: as §1

rice flat sedge = test: Test Example 3: herbicidal effect by foliage application, Wagner pot (Table 18, symbol E); assay type: in vivo, rice flat sedge (Cyperus iria); details: 320 g/ha
Outline: as §4

lambsquarters [12] = test: Test Example 5: herbicidal effect by foliage application, plastic box (Table 20, symbol O); assay type: in vivo, lambsquarters (Chenopodium album); details: foliage application, 320 g/ha, three weeks after application
Outline: as §2

southern crabgrass [13] = test: Test Example 5: herbicidal effect by foliage application, plastic box (Table 20, symbol F); assay type: in vivo, southern crabgrass (Digitaria ciliaris); details: foliage application, 320 g/ha, three weeks after application
Outline: as §2

Japanese bulrush = test: Test Example 1: herbicidal activity, application before weed generation under submerged conditions (Table 16, symbol B); assay type: in vivo, Japanese bulrush (Schoenoplectus juncoides); details: 320 g/ha applied herbicide
Outline: as §3

lambsquarters [14] = test: Test Example 4: herbicidal effect by soil treatment (Table 19, symbol O); assay type: in vivo, lambsquarters (Chenopodium album); details: amount of applied herbicide 320 g/ha
Outline: as §1

barnyard grass [15] = test: Test Example 3: herbicidal effect by foliage application, Wagner pot (Table 18, symbol H); assay type: in vivo, barnyard grass (Echinochloa crus-galli); details: 320 g/ha
Outline: as §4

windgrass [16] = test: Test Example 4: herbicidal effect by soil treatment (Table 19, symbol L); assay type: in vivo, windgrass (Apera spica-venti); details: amount of applied herbicide 320 g/ha
Outline: as §1

redroot pigweed [17] = test: Test Example 5: herbicidal effect by foliage application, plastic box (Table 20, symbol N); assay type: in vivo, redroot pigweed (Amaranthus retroflexus); details: foliage application, 320 g/ha, three weeks after application
Outline: as §2

barnyard grass [18] = test: Test Example 4: herbicidal effect by soil treatment (Table 19, symbol H); assay type: in vivo, barnyard grass (Echinochloa crus-galli); details: amount of applied herbicide 320 g/ha
Outline: as §1

Italian ryegrass [19] = test: Test Example 4: herbicidal effect by soil treatment (Table 19, symbol K); assay type: in vivo, Italian ryegrass (Lolium multiflorum); details: amount of applied herbicide 320 g/ha
Outline: as §1

blackgrass [20] = test: Test Example 4: herbicidal effect by soil treatment (Table 19, symbol J); assay type: in vivo, blackgrass (Alopecurus myosuroides); details: amount of applied herbicide 320 g/ha
Outline: as §1

wild oat [21] = test: Test Example 5: herbicidal effect by foliage application, plastic box (Table 20, symbol I); assay type: in vivo, wild oat (Avena fatua); details: foliage application, 320 g/ha, three weeks after application
Outline: as §2

blackgrass [22] = test: Test Example 5: herbicidal effect by foliage application, plastic box (Table 20, symbol J); assay type: in vivo, blackgrass (Alopecurus myosuroides); details: foliage application, 320 g/ha, three weeks after application
Outline: as §2

velvetleaf [23] = test: Test Example 5: herbicidal effect by foliage application, plastic box (Table 20, symbol M); assay type: in vivo, velvetleaf (Abutilon theophrasti); details: foliage application, 320 g/ha, three weeks after application
Outline: as §2

southern crabgrass [24] = test: Test Example 4: herbicidal effect by soil treatment (Table 19, symbol F); assay type: in vivo, southern crabgrass (Digitaria ciliaris); details: amount of applied herbicide 320 g/ha
Outline: as §1

barnyard grass [25] = test: Test Example 5: herbicidal effect by foliage application, plastic box (Table 20, symbol H); assay type: in vivo, barnyard grass (Echinochloa crus-galli); details: foliage application, 320 g/ha, three weeks after application
Outline: as §2

Compound | herbicidal effect rating, R: persian speedwell (persian speedwell [1]) | herbicidal effect grade, K: Italian ryegrass (Italian ryegrass [2]) | herbicidal effect grade, G: green foxtail (green foxtail [3]) | Herbicidal effect on A: late watergrass (grade 0-5) (late watergrass) | herbicidal effect rating, M: velvetleaf (velvetleaf [4]) | herbicidal effect grade, P: chickweed (chickweed [5]) | herbicidal effect rating, I: wild oat (wild oat [6]) | herbicidal effect on D (Chinese sprangletop), rating 0-5 (Chinese sprangletop) | herbicidal effect grade, L: windgrass (windgrass [7]) | Herbicidal effect on C: oval-leafed pondweed (grade 0-5) (oval-leafed pondweed) | herbicidal effect rating, G: green foxtail (green foxtail [8]) | herbicidal effect grade, R: persian speedwell (persian speedwell [9]) | herbicidal effect rating, P: chickweed (chickweed [10]) | herbicidal effect rating, N: redroot pigweed (redroot pigweed [11]) | herbicidal effect on E (rice flat sedge), rating 0-5 (rice flat sedge) | herbicidal effect grade, O: lambsquarters (lambsquarters [12]) | herbicidal effect grade, F: southern crabgrass (southern crabgrass [13]) | Herbicidal effect on B: Japanese bulrush (grade 0-5) (Japanese bulrush) | herbicidal effect rating, O: lambsquarters (lambsquarters [14]) | herbicidal effect on H (barnyard grass), rating 0-5 (barnyard grass [15]) | further results
CCCC(=O)Oc1c(C)nn(C)c(=O)c1-c1c(-c2ccccc2OCC)sc2ccccc12 [1-012] | 0 (Herbicidal rate of 5% or less (almost no effect)) | 3 (Herbicidal rate of 40% or more and less than 70%) | 5 (Herbicidal rate of 90% or more (almost completely withered)) | 3 (Herbicidal rate of 40% or more and less than 70%) | 0 (Herbicidal rate of 5% or less (almost no effect)) | 5 (Herbicidal rate of 90% or more (almost completely withered)) | 1 (Herbicidal rate of 5% or more and less than 20%) | 0 (Herbicidal rate of 5% or less (almost no effect)) | 4 (Herbicidal rate of 70% or more and less than 90%) | 3 (Herbicidal rate of 40% or more and less than 70%) | 5 (Herbicidal rate of 90% or more (almost completely withered)) | 5 (Herbicidal rate of 90% or more (almost completely withered)) | 0 (Herbicidal rate of 5% or less (almost no effect)) | 0 (Herbicidal rate of 5% or less (almost no effect)) | 5 (Herbicidal rate of 90% or more (almost completely withered)) | 2 (Herbicidal rate of 20% or more and less than 40%) | 5 (Herbicidal rate of 90% or more (almost completely withered)) | 1 (Herbicidal rate of 5% or more and less than 20%) | 0 (Herbicidal rate of 5% or less (almost no effect)) | 5 (Herbicidal rate of 90% or more (almost completely withered)) | herbicidal effect rating, L: windgrass (windgrass [16]): 3 (Herbicidal rate of 40% or more and less than 70%); herbicidal effect grade, N: redroot pigweed (redroot pigweed [17]): 3 (Herbicidal rate of 40% or more and less than 70%); herbicidal effect rating, H: barnyard grass (barnyard grass [18]): 5 (Herbicidal rate of 90% or more (almost completely withered)); herbicidal effect rating, K: Italian ryegrass (Italian ryegrass [19]): 0 (Herbicidal rate of 5% or less (almost no effect)); herbicidal effect rating, J: blackgrass (blackgrass [20]): 5 (Herbicidal rate of 90% or more (almost completely withered)); herbicidal effect grade, I: wild oat (wild oat [21]): 4 (Herbicidal rate of 70% or more and less than 90%); herbicidal effect grade, J: blackgrass (blackgrass [22]): 4 (Herbicidal rate of 70% or more and less than 90%); herbicidal effect grade, M: velvetleaf (velvetleaf [23]): 3 (Herbicidal rate of 40% or more and less than 70%); herbicidal effect rating, F: southern crabgrass (southern crabgrass [24]): 4 (Herbicidal rate of 70% or more and less than 90%); herbicidal effect grade, H: barnyard grass (barnyard grass [25]): 5 (Herbicidal rate of 90% or more (almost completely withered))
CCCC(=O)Oc1c(C)nn(C)c(=O)c1-c1c(-c2ccc(F)c(F)c2)sc2ccccc12 [1-047] | 5 (Herbicidal rate of 90% or more (almost completely withered)) | 0 (Herbicidal rate of 5% or less (almost no effect)) | 0 (Herbicidal rate of 5% or less (almost no effect)) | 3 (Herbicidal rate of 40% or more and less than 70%) | 0 (Herbicidal rate of 5% or less (almost no effect)) | 5 (Herbicidal rate of 90% or more (almost completely withered)) | 0 (Herbicidal rate of 5% or less (almost no effect)) | 0 (Herbicidal rate of 5% or less (almost no effect)) | 0 (Herbicidal rate of 5% or less (almost no effect)) | 0 (Herbicidal rate of 5% or less (almost no effect)) | 2 (Herbicidal rate of 20% or more and less than 40%) | 3 (Herbicidal rate of 40% or more and less than 70%) | 5 (Herbicidal rate of 90% or more (almost completely withered)) | 0 (Herbicidal rate of 5% or less (almost no effect)) | 5 (Herbicidal rate of 90% or more (almost completely withered)) | 3 (Herbicidal rate of 40% or more and less than 70%) | 0 (Herbicidal rate of 5% or less (almost no effect)) | 0 (Herbicidal rate of 5% or less (almost no effect)) | 3 (Herbicidal rate of 40% or more and less than 70%) | 2 (Herbicidal rate of 20% or more and less than 40%) | herbicidal effect rating, L: windgrass (windgrass [16]): 0 (Herbicidal rate of 5% or less (almost no effect)); herbicidal effect grade, N: redroot pigweed (redroot pigweed [17]): 3 (Herbicidal rate of 40% or more and less than 70%); herbicidal effect rating, H: barnyard grass (barnyard grass [18]): 3 (Herbicidal rate of 40% or more and less than 70%); herbicidal effect rating, K: Italian ryegrass (Italian ryegrass [19]): 0 (Herbicidal rate of 5% or less (almost no effect)); herbicidal effect rating, J: blackgrass (blackgrass [20]): 0 (Herbicidal rate of 5% or less (almost no effect)); herbicidal effect grade, I: wild oat (wild oat [21]): 0 (Herbicidal rate of 5% or less (almost no effect)); herbicidal effect grade, J: blackgrass (blackgrass [22]): 0 (Herbicidal rate of 5% or less (almost no effect)); herbicidal effect grade, M: velvetleaf (velvetleaf [23]): 5 (Herbicidal rate of 90% or more (almost completely withered)); herbicidal effect rating, F: southern crabgrass (southern crabgrass [24]): 0 (Herbicidal rate of 5% or less (almost no effect)); herbicidal effect grade, H: barnyard grass (barnyard grass [25]): 0 (Herbicidal rate of 5% or less (almost no effect))
